Series [1] concerns senescent fibroblasts. The series can be described thus: Reduction of mitochondrial DNA (mtDNA) in senescent fibroblasts (in vitro study). As to conditions: 5 days treatment; FIG. 5. In kind it is cell-based. How it is done: Disruptions of the nuclear and mitochondrial DNA were studied, analyzed by detecting nucleus fragments, the mitochondrial DNA content, the mitochondrial mass and the average cell density, the latter as representation of viability.
(§1) The cells were treated with β-L-aspartyl-L-arginine for 5 days. The cell images were taken after incubation. In order to label the nuclear and mitochondrial DNA, the cells were incubated with a fluorescent dye for 30 minutes. After removal of the dye, the images were taken with an epifluorescence microscope. Image analysis was performed in a 3-fold determination. Sampling 10 pictures per experimental condition or repetition, respectively.
(§2) Data collection: The images were taken with a Zeiss axioplan microscope. Image analysis was performed with a software developed by ICDD.
(§3) Data interpretation: The following data was collected: average cell size, mtDNA content, mitochondrial density, mitochondrial biogenesis, mitochondrial mass and cell nucelus size. The average cell number per field was used as control of cell viability for each experimental condition. The effect of active substances was also given as protective effect in comparison to non-treated cells. The effect of the positive control was included for comparison.

In another series the test system is fibronectin. Nature of the series: Stimulation of fibronectin proteins in the dermis (ex vivo study). In kind it is cell-based. As to conditions: 4 μl topically every day during 6 days, vs untreated skin; FIG. 7. On the procedure: (§4) 4 μl of β-L-aspartyl-L-arginine were applied on the skin every day during 6 days of treatment at 37° C., 5% CO2 and 100% humidity. 12 skin cuts were immunohistochemically stained with selected antibodies. The papillary dermis was selected for the analysis because it is the part of the dermis, which changes the most in reaction to a previous treatment.
(§5) The area to be analyzed was carefully selected while it was made sure that irregular structures such as blood vessels, sweat glands or hair follicles were avoided.
(§6) For the assessment of the results, both, the color intensity and the color distribution were measured using Image-J analysis software (NIH, USA)—thus a semi-quantitative assessment was possible.

Series [2] relates to human skin explants. Nature of the series: Protection against carbonylation of proteins (ex vivo study). It is filed as cell-based. Particulars: UV stimulated skin treated with 0.2% and 0.5%, vs untreated UV stimulated skin; FIG. 9. How it is done: Detection of carbonylation: After removing the fatty and connective tissue, the frozen skin samples are weighed and cut. The skin pieces of the tested samples are combined and homogenized in a cold extraction buffer. Cell lysates are collected by centrifugation.
The measurement of the carbonylated protein is performed with the “OxyBlot Protein_Oxidation Kit by Millipore”, (#S7150) according to the protocol of the producer. Only the protein bands of a size between 50 kDa and 150 kDa were taken into account for the calculation. The obtained amount of carbonylated protein is normalized with the actin band (which is constant) and given with respect to the non-treated sample.

The test system of series [3] is senescent fibroblasts. The series can be described thus: Reduction of cell size in senescent fibroblasts (in vitro study). It is filed as cell-based. As to conditions: amounts of more than 1.0 mM, vs untreated senescent fibroblasts; FIG. 3. How it is done:
(§7) Senescent cells were incubated with β-L-aspartyl-L-arginine. Cell size and nuclear size were measured while cell density reflects the viability. […] See example 4 for the details of experimental procedure.
as §1, §2, §3

For a further series, the system named is collagen Typ III. Nature of the series: Stimulation of collagen Type III (ex vivo study). In kind it is cell-based. Particulars: vs untreated skin; FIG. 12. On the procedure:
as §4, §5, §6

The test system of series [4] is senescent fibroblasts. The series can be described thus: Reduction of nucleus to cell size (N/C) ratio in senescent fibroblasts (in vitro study). In kind it is cell-based. Particulars: vs untreated senescent fibroblasts; FIG. 4. On the procedure: as §7, §1, §2, §3
The nature of series [5]: Reduction of wrinkle intensity (clinical study). It is filed as in vivo, human. How it is done: (§8) The study was conducted with 26 female volunteers of age 53 +/−3 years. The application was done twice daily for two months. On one side of the face, the product is applied, on the other side the placebo.
Imaging: The evaluation is based on high-resolution digital photography under controlled conditions. Pictures were taken at the start of the study, after 28 days and after 56 days of product application.
The subjects were positioned in front of the optical arrangement and the face was photographed as portrait or close-up. The persons were photographed seated at controlled lighting. The conditions were kept constant during all photographs to ensure comparability.
Reduction of wrinkles and lines: The assessment of wrinkles and lines was done in a limited area around the eye of the subject. The intensity of the wrinkles and lines was measured as parameter R. The larger the value for R, the more pronounced are the wrinkles and lines. The relative reduction of wrinkles is calculated according to the following formula:
R%=100(Ri−RF)/Ri(R=wrinkle intensity, i=initial; f=final)
Data analysis and interpretation: For data analysis the following software packages were used: […]

For series [6], the system named is human skin explants. The series can be described thus: Reduction of ROS score after UVA irradiation on human skin explants (ex vivo study). It is filed as cell-based. Particulars: topical, 18 h incubation, vs untreated UV irradiated skin, FIG. 6. An excerpt: Cultivation of skin models: The skin was cut into about 8×3 mm large pieces (diameter×layer thickness of the models) and cultivated until the planned end of the experiment. Per treatment, six models each were used. The skin models were cultivated as air-liquid-interface cultures in a perforated stainless steel ring with contact to the culture medium (modified Williams 'E Medium) until the desired endpoint.
Treatment: Test substances and controls were applied topically. To this end, the skin models were carefully cleaned with a cotton pad. Subsequently, 4 μL of each test substance or the control, respectively, were applied to the models and covered with a membrane filter (diameter=6 mm).
The skin models were incubated for 18 h with test substance and positive control, respectively. […]
UV-irradiation: The used sun simulator was a BIO-SUN-system from the company Vilber Lourmat. […] The UV-light emission is constantly monitored and the system stops automatically when the pre-set energy quantity is reached. […]
Of each skin model, two samples were used for image capture with the fluorescence analysis. Each picture was analyzed by determining the fluorescence using Image-J analysis software (NIH, USA). The measured values were normalized over the size of the selected surface.
Statistics: For each treatment of the skin models, the averages of the quantitative data was determined. […]

The nature of series [7]: Improvement of skin firmness and elasticity (clinical study, cutometer). In kind it is in vivo, human. How it is done:
as §8
The method of measurement relies on suction. A vacuum is created in the gauge head of the cutometer, which sucks the skin into the measuring device. An optical arrangement, consisting of a light source and a light detector, measures the light intensity, which enters dependent on how much skin is sucked in. The resulting parameters are elasticity and skin firmness.
Skin firmness represents the resistance, which the skin creates against the suction by the vacuum. Elasticity, is the time, which the skin needs to return to its original state.

In series [8] the test system is senescent fibroblasts. The series can be described thus: Reduction of mitochondrial ROS in senescent fibroblasts (in vitro study). In kind it is cell-based. On the procedure: Using a fluorescent dye, the antioxidative potential of β-L-aspartyl-L-arginine with respect to mitochondrial reactive oxygen species (ROS) was quantified. Senescent cells were incubated with β-L-aspartyl-L-arginine for 24 hours. Subsequently, the treated and non-treated senescent cells as well as the treated and non-treated non-senescent cells were incubated with the fluorescent dye for 30 minutes at 37° C. After washing, a portion of the non-senescent cells was treated with the oxidative reference substance H2O2 (100 μM). The mitochondrial ROS production was measured immediately every 5 mins over a period of 60 minutes. A microtiter plate reader (Varioskan-Thermo) was used as measuring device. During the kinetic measurement, the cells were further incubated at 37° C. Using fluorimetry, the antioxidative activity was measured in parallel with the viability of the cell. The experiments comprised a blank as well as a negative and a positive control. The positive control consists of […]. […] Senescent cells treated with resveratrol were used as reference for the comparison of the activity of β-L-aspartyl-L-arginine in the decrease of endogenous production of mitochondrial ROS in senescent cells. β-L-aspartyl-L-arginine was measured in a 4-fold measurement. […]

Series [9] can be described thus: Solubility and stability of the powder. In kind it is physicochemical.
[10] abbreviates: after eight weeks, twice daily use of 0.1%.

Take `N=C(N)NCCC[C@H](NC(=O)C[C@H](N)C(=O)O)C(=O)O` [β-L-aspartyl-L-arginine]: the “mtDNA in senescent cells” value in the series on senescent fibroblasts [1] is listed as “reduced by β-L-aspartyl-L-arginine to an amount comparable to young replicative cells”. In the series with fibronectin, the “fibronectin production in the dermis” value is “stimulate the fibronectin production”. Further, the “formation of carbonylated proteins” value in the series on human skin explants [2] is on record as “prevent the formation of carbonylated proteins”. The “cell size of senescent fibroblasts” value with senescent fibroblasts [3] is given as “reduce cell size”. Moreover, the “collagen Typ III production” value in the series on collagen Typ III is “stimulate the collagen Typ III production”. Also, the “nucleus to cell size ratio in senescent fibroblasts” value in the series with senescent fibroblasts [4] was “reduced compared to untreated senescent fibroblasts”. The “volunteers with significant reduction of wrinkle intensity” value in series [5] (setting [10]) worked out at 85%. For the same compound, the “reduction of wrinkle intensity compared to a placebo” value in series [5] (after eight weeks, twice daily use of 0.1%, 26 female volunteers) is given as 6.8%. In addition, in series [5] (four weeks of twice daily use of 0.1%, FIG. 8), the “wrinkles and fine lines on crow feet” value is “visibly smoothes wrinkles and fine lines”. In the series on human skin explants [6], the “ROS score of UV irradiated skin (dermis)” value was “significantly reduces the ROS score”. Besides, in series [7] (setting [10]), the “enhancement of skin elasticity compared to the placebo” value was “+8.5%”, the “enhancement of skin firmness compared to the placebo” value is “+10.1%”, the “volunteers with significant enhancement of skin elasticity” value is reported as 100% and the “volunteers with significant enhancement of skin firmness” value was determined as 92%. For the same compound, in series [7] (four weeks of twice daily use of 0.1%, FIG. 10), the skin firmness result is “visibly improves skin firmness”. In addition, the skin elasticity entry in [7] (four weeks of twice daily use of 0.1%, FIG. 11) is reported as “visibly improves skin elasticity”. Further, in the series on senescent fibroblasts [8] (10 μM, 24 hours incubation, senescent cells vs non-treated senescent cells, FIG. 1), the “mitochondrial ROS (mtROS)” value is given as “significant reduction of mitochondrial ROS”. For the same compound, in the series with senescent fibroblasts [8] (values with respect to untreated senescent cells = 100%, FIG. 2), the “dosage dependence of the mtROS reduction effect” value is “Increasing amounts of β-L-aspartyl-L-arginine show a larger reduction”. Besides, the stability entry in series [9] (pH from 5 to 9, up to 50° C.) was “stable at a pH from 5 to 9 at up to 50 °C”. Further, the water solubility entry in series [9] (white, odorless powder) was “water soluble”.

The values above are taken from US20220323536A1, “USE OF BETA-L-ASPARTYL-L-ARGININE ON SENESCENT SKIN” (SYMRISE AG, priority 2019, published 2022).
